Measured values taken from US20260092061A1, “COMPOUNDS FOR TARGETED PROTEIN DEGRADATION” (Amphista Therapeutics Limited, priority 2022, published 2026).
Like-named read-outs stand apart in the source and are kept apart here.

Target: T1, BRD9 (Homo sapiens, UniProt Q9H8M2)
T1 sequence (Q9H8M2 1-597): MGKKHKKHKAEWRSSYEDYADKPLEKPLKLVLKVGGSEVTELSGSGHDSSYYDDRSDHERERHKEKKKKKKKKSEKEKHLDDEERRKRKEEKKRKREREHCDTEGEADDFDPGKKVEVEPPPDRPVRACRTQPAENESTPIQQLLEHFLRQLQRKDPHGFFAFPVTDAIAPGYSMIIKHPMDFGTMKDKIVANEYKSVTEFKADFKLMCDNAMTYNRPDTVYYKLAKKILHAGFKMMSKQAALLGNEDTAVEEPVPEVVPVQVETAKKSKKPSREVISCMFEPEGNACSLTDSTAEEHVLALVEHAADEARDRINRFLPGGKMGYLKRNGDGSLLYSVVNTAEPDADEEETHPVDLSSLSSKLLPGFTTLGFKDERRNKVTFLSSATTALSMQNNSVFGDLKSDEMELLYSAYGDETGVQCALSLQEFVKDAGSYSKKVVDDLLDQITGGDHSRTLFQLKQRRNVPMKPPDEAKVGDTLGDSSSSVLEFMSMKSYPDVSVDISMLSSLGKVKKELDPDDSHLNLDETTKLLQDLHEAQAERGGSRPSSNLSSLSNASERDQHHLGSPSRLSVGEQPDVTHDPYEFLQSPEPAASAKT
Test: Degradation of BRD9 (IF), immunofluorescence in MV4-11 cells, 24 hours (Assay Protocol 2)
Format: cell-based
Parameters: A suspension of MV4-11 cells (ATCC CRL-9591) was prepared; host or cells: MV4-11
Conditions: BRD9 degradation
Outline: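 % BRD9 remaining, scaled between DMSO (high) and 100 nM CFT-8634 (low) control wells, derives from mean Alexa 647 contrast in central nuclei by high-content imaging. MV4-11 cells had 24 h compound exposure at 37° C. before PFA fixation, Triton permeabilisation and anti-BRD9 E4Q3F immunostaining.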

[1] = Assay protocol 2, read-out: DC50
[2] = MV4-11, Assay protocol 2, read-out: Dmax

Compound | DC50 [1] [nM] | Dmax [2] [%] | Dmax (MV4-11, Table 4, determined according to Assay Protocol 2, read-out: Dmax^2) [%] | DC50 (Table 4, determined according to Assay Protocol 2, read-out: DC50^2) [nM]
COc1cc(-c2cn(C)c(=O)c3ccsc23)cc(OC)c1CN1CCC(Oc2cccc3c2CCN(C(=O)/C(C#N)=C/c2cccc(Br)n2)C3C)CC1 (mixture of isomers) [Compound B77] | < 1.25 | 40 to 70 |  | 
COc1cc(-c2cn(C)c(=O)c(C)c2C)cc(OC)c1CN1CCN(Cc2cccc3c2CCN(C(=O)/C(C#N)=C/C(C)C)C3C(C)C)CC1 (mixture of isomers) [Compound C22, (E/Z)-2-(5-((4-(2,6-dimethoxy-4-(1,4,5-trimethyl-6-oxo-1,6-dihydropyridin-3-yl)benzyl)piperazin-1-yl)methyl)-1-isopropyl-1,2,3,4-tetrahydroisoquinoline-2-carbonyl)-4-methylpent-2-enenitrile] | 1.25 to 10 | > 75 |  | 
COc1cc(-c2cn(C)c(=O)c(C)c2C)cc(OC)c1CN1CC2CC(C1)N2Cc1ccc2c(c1)[C@@H](C)N(C(=O)/C(C#N)=C/C(C)(C)C)CC2 (single isomer, unassigned) [Compound C64, (E/Z)-2-(7-((3-(2,6-dimethoxy-4-(1,4,5-trimethyl-6-oxo-1,6-dihydropyridin-3-yl)benzyl)-3,6-diazabicyclo[3.1.1]heptan-6-yl)methyl)-1-methyl-1,2,3,4-tetrahydroisoquinoline-2-carbonyl)-4,4-dimethylpent-2-enenitrile] | 25 to 1000 | 40 to 70 |  | 
COc1cc(-c2cn(C)c(=O)c(C)c2C)cc(OC)c1CN1CCN(Cc2cccc3c2CCN(C(=O)/C(C#N)=C/C(C)(C)C)[C@@H]3C(C)C)C2(CC2)C1 (single isomer, unassigned) [Compound C79, (E/Z)-2-(5-((7-(2,6-dimethoxy-4-(1,4,5-trimethyl-6-oxo-1,6-dihydropyridin-3-yl)benzyl)-4,7-diazaspiro[2.5]octan-4-yl)methyl)-1-isopropyl-1,2,3,4-tetrahydroisoquinoline-2-carbonyl)-4,4-dimethylpent-2-enenitrile] | 25 to 1000 | 40 to 70 |  | 
COc1cc(-c2cn(C)c(=O)c(C)c2C)cc(OC)c1CN1C2CC1CN(C(=O)/C(C#N)=C/c1cc(C)on1)C2 (mixture of isomers) [BRD9y, (E/Z)-2-(6-(2,6-dimethoxy-4-(1,4,5-trimethyl-6-oxo-1,6-dihydropyridin-3-yl)benzyl)-3,6-diazabicyclo[3.1.1]heptane-3-carbonyl)-3-(5-methylisoxazol-3-yl)acrylonitrile] |  |  | 30 to 50 | < 25
COc1cc(-c2cn(C)c(=O)c(C)c2C)cc(OC)c1CN1CCN(Cc2cccc3c2CCN(C(=O)/C(C#N)=C/C2(C)CCC2)C3C)C2(CC2)C1 (mixture of isomers) [Compound B149, (E/Z)-2-(5-((7-(2,6-dimethoxy-4-(1,4,5-trimethyl-6-oxo-1,6-dihydropyridin-3-yl)benzyl)-4,7-diazaspiro[2.5]octan-4-yl)methyl)-1-methyl-1,2,3,4-tetrahydroisoquinoline-2-carbonyl)-3-(1-methylcyclobutyl)acrylonitrile] | < 1.25 | > 75 |  | 
COc1cc(-c2cn(C)c(=O)c(C)c2C)cc(OC)c1CN1CCC(Cc2cccc3c2CCN(C(=O)/C(C#N)=C/C(C)(C)C)C3C)C(C)(C)C1 (stereo not shown) [Compound C62] | 10 to 25 | > 75 |  | 
COc1cc(-c2cn(C)c(=O)c(C)c2C)ccc1OC1CCN(Cc2cccc3c2CCN(C(=O)/C(C#N)=C/C(C)(C)C)C3C(C)C)CC1 (mixture of isomers) [Compound C32, (E/Z)-2-(1-isopropyl-5-((4-(2-methoxy-4-(1,4,5-trimethyl-6-oxo-1,6-dihydropyridin-3-yl)phenoxy)piperidin-1-yl)methyl)-1,2,3,4-tetrahydroisoquinoline-2-carbonyl)-4,4-dimethylpent-2-enenitrile] | 25 to 1000 | 70 to 75 |  | 
COc1cc(-c2cn(C)c(=O)c(C)c2C)cc(OC)c1CN1CCC2(CC1)CCN(c1cccc3c1CCN(C(=O)/C(C#N)=C/C(C)(C)CF)[C@@H]3C)C2 (mixture of isomers) [Compound C48, (E/Z)-2-(5-(8-(2,6-dimethoxy-4-(1,4,5-trimethyl-4-oxo-1,6-dihydropyridin-3-yl)benzyl)-2,8-diazaspiro[4.5]decan-2-yl)-1-methyl-1,2,3,4-tetrahydroisoquinoline-2-carbonyl)-5-fluoro-4,4-dimethylpent-2-enenitrile] | 1.25 to 10 | > 75 |  | 
COc1cc(-c2cn(C)c(=O)c(C)c2C)cc(OC)c1CN1CCN(Cc2cccc3c2CCN(C(=O)/C(C#N)=C/C(C)(C)C)C3C2CC2)C2(CC2)C1 (mixture of isomers) [Compound C16, (E/Z)-2-(1-cyclopropyl-5-((7-(2,6-dimethoxy-4-(1,4,5-trimethyl-6-oxo-1,6-dihydropyridin-3-yl)benzyl)-4,7-diazaspiro[2.5]octan-4-yl)methyl)-1,2,3,4-tetrahydroisoquinoline-2-carbonyl)-4,4-dimethylpent-2-enenitrile] | < 1.25 | > 75 |  | 
COc1cc(-c2cn(C)c(=O)c(C)c2C)cc(OC)c1CN1CCN(Cc2cccc3c2CCN(C(=O)/C(C#N)=C/C(C)(C)C)C3C)C(C(C)C)C1 (mixture of isomers) [Compound B136, (E/Z)-2-(5-((4-(2,6-dimethoxy-4-(1,4,5-trimethyl-6-oxo-1,6-dihydropyridin-3-yl)benzyl)-2-isopropylpiperazin-1-yl)methyl)-1-methyl-1,2,3,4-tetrahydroisoquinoline-2-carbonyl)-4,4-dimethylpent-2-enenitrile] | 1.25 to 10 | > 75 |  | 
COc1cnc(F)c(/C=C(\C#N)C(=O)N2CCc3c(CN4CCN(Cc5c(OC)cc(-c6cn(C)c(=O)c(C)c6C)cc5OC)CC4)cccc3C2C)c1 (mixture of isomers) [Compound B75, (E/Z)-2-(5-((4-(2,6-dimethoxy-4-(1,4,5-trimethyl-6-oxo-1,6-dihydropyridin-3-yl)benzyl)piperazin-1-yl)methyl)-1-methyl-1,2,3,4-tetrahydroisoquinoline-2-carbonyl)-3-(2-fluoro-5-methoxypyridin-3-yl)acrylonitrile] | 1.25 to 10 | 40 to 70 |  | 
COc1cc(-c2cn(C)c(=O)c(C)c2C)cc(OC)c1CN1CCCN(c2ccc3c(c2)[C@H](C)N(C(=O)/C(C#N)=C/C(C)(C)CF)CC3)CC1 (mixture of isomers) [Compound C68, (E/Z)-2-(7-(4-(2,6-dimethoxy-4-(1,4,5-trimethyl-6-oxo-1,6-dihydropyridin-3-yl)benzyl)-1,4-diazepan-1-yl)-1-methyl-1,2,3,4-tetrahydroisoquinoline-2-carbonyl)-5-fluoro-4,4-dimethylpent-2-enenitrile] | 25 to 1000 | 40 to 70 |  | 
COc1cc(-c2cn(C)c(=O)c(C)c2C)cc(OC)c1CN1CCC(Cc2cccc3c2CCN(C(=O)/C(C#N)=C/C(C)(C)C)C3C)CC1 (mixture of isomers) [Compound B156, (E/Z)-2-(5-((1-(2,6-dimethoxy-4-(1,4,5-trimethyl-6-oxo-1,6-dihydropyridin-3-yl)benzyl)piperidin-4-yl)methyl)-1-methyl-1,2,3,4-tetrahydroisoquinoline-2-carbonyl)-4,4-dimethylpent-2-enenitrile] | 1.25 to 10 | 40 to 70 |  | 
COc1cc(-c2cn(C)c(=O)c(C)c2C)cc(OC)c1CN1CCN(Cc2ccc3c(c2)[C@H](C)N(C(=O)/C(C#N)=C/C(C)(C)C)CC3)CC12CC2 (mixture of isomers) [Compound B200, (E/Z)-2-(7-((4-(2,6-dimethoxy-4-(1,4,5-trimethyl-6-oxo-1,6-dihydropyridin-3yl)benzyl)-4,7-diazaspiro[2.5]octan-7-yl)methyl)-1-methyl-1,2,3,4-tetrahydroisoquinoline-2-carbonyl)-4,4-dimethylpent-2-enenitrile] | 1.25 to 10 | > 75 |  | 
COc1cc(-c2cn(C)c(=O)c(C)c2C)cc(OC)c1CN1CCCN(Cc2cccc3c2CCN(C(=O)/C(C#N)=C/C(C)(C)C)C3C(C)C)CC1 (mixture of isomers) [Compound C11, (E/Z)-2-(5-((4-(2,6-dimethoxy-4-(1,4,5-trimethyl-6-oxo-1,6-dihydropyridin-3-yl)benzyl)-1,4-diazepan-1-yl)methyl)-1-isopropyl-1,2,3,4-tetrahydroisoquinoline-2-carbonyl)-4,4-dimethylpent-2-enenitrile] | 1.25 to 10 | 40 to 70 |  | 
COc1cc(-c2cn(C)c(=O)c(C)c2C)cc(OC)c1CN1CCN(Cc2cccc3c2CCN(C(=O)/C(C#N)=C/C(C)(C)C)[C@H]3C(C)C)C2(CC2)C1 (single isomer, unassigned) [Compound C78, (E/Z)-2-(5-((7-(2,6-dimethoxy-4-(1,4,5-trimethyl-6-oxo-1,6-dihydropyridin-3-yl)benzyl)-4,7-diazaspiro[2.5]octan-4-yl)methyl)-1-isopropyl-1,2,3,4-tetrahydroisoquinoline-2-carbonyl)-4,4-dimethylpent-2-enenitrile] | < 1.25 | > 75 |  | 
